{"source": "paper PMC8092228", "about": "(mBio, 2021)", "key": {"[1]": {"molecular_target": "T1, LOV-PAS-HK (full-length LOV-HK) (Brucella abortus, UniProt Q2YKK7)", "T1 construct": "gene BAB2_0652", "T1 sequence (Q2YKK7 15-489 limits assumed)": "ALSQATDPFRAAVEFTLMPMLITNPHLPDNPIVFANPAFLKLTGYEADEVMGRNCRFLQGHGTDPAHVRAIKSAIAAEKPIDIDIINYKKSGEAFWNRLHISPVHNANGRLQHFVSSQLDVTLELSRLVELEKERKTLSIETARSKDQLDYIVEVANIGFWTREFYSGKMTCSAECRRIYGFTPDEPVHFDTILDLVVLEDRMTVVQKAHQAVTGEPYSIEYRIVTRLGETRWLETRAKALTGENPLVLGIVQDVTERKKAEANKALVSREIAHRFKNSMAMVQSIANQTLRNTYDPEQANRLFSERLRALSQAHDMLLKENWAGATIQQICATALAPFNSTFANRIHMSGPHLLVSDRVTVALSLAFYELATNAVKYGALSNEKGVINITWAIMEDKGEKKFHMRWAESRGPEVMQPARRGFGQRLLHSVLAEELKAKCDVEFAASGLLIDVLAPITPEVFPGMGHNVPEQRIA"}, "[2]": {"molecular_target": "T2, LOV-PAS (Brucella abortus, UniProt Q2YKK7)", "T2 construct": "gene BAB2_0652", "T2 sequence (Q2YKK7 15-273 limits assumed)": "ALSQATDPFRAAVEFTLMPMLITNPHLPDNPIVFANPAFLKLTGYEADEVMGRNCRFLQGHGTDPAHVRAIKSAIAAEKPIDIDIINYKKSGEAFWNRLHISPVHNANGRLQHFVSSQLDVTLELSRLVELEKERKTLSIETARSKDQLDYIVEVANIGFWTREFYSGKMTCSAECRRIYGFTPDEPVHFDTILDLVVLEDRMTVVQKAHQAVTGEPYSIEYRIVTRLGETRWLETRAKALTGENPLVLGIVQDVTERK"}}}
{"smiles": "Cc1cc2nc3c(=O)[nH]c(=O)nc-3n(C[C@H](O)[C@H](O)[C@H](O)COP(=O)(O)O)c2cc1C", "note": "[FMN]", "values": [{"measurement": "X-ray crystal structure 3.25 A", "setting": "[1]", "result": "the electron densities associated with the FMN chromophores are fused into the protein moiety"}, {"measurement": "X-ray crystal structure, 2.74 A (dark), 2.80 A (light)", "setting": "[2]", "result": "the FMN ligand is clearly separated from the protein moiety in the electron density map"}]}
